# Results taken from the supplement of paper PMC8253809.
# Experiments:
# HGGX2 = paediatric high-grade glioma line; test: EC50 (inflection of fitted growth-inhibition curve) (log10 M)
# How it was run: (§1)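 Viability readout was CellTiter-Glo luminescence, log2-transformed, normalised per plate to % activity between negative (solvent) and positive control wells, then pooled. This followed a 7-day exposure (3 days for iAstro) at 37 °C, 5% CO2 to a 10-point threefold dilution series (mean top concentration 35 μM), pin-tool delivered in triplicate to patient-derived pHGG/DIPG cell lines and astrocyte controls on 1% Geltrex-coated 384-well plates. Three- and four-parameter log-logistic fits were compared, and the one with the lowest AICc supplied EC50 and maximal response (yFin).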
# HGGX42 = H3.3 G34R paediatric high-grade glioma line; test: as above
# How it was run: as §1
# SUDIPGXIII = diffuse intrinsic pontine glioma line; test: as above
# How it was run: as §1
# SUDIPGIV = diffuse intrinsic pontine glioma line; test: as above
# How it was run: as §1
# DIPGX29 [1] = H3.3 K27M diffuse intrinsic pontine glioma line; test: as above
# How it was run: as §1
# HGGX6 = H3.3 G34R paediatric high-grade glioma line; test: as above
# How it was run: as §1
# DIPGX7 = H3.3 K27M diffuse intrinsic pontine glioma line; test: as above
# How it was run: as §1
# DIPGX9 = diffuse intrinsic pontine glioma line; test: as above
# How it was run: as §1
# SUDIPGXIX = diffuse intrinsic pontine glioma line; test: as above
# How it was run: as §1
# DIPGX37 = H3.3 K27M diffuse intrinsic pontine glioma line; test: as above
# How it was run: as §1
# SUDIPGXVII = diffuse intrinsic pontine glioma line; test: as above
# How it was run: as §1
# SUDIPGVI [2] = diffuse intrinsic pontine glioma line; test: as above
# How it was run: as §1
# HABS = astrocyte control; test: as above
# How it was run: as §1
# HGGX39 = paediatric high-grade glioma line; test: as above
# How it was run: as §1
# iAstro = astrocyte control; test: as above
# How it was run: as §1
# SUDIPGXXI = diffuse intrinsic pontine glioma line; test: as above
# How it was run: as §1
# DIPGX29 [3] = test: area under dose-response curve of % growth inhibition (log2 RLU vs DMSO / staurosporine), 1e-11 to 1e-4 M (% x log10 M); higher = more growth inhibition
# How it was run: (§2)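 Patient-derived pHGG/DIPG cell lines and astrocytes, cultured on 384-well plates with a 1% Geltrex coating, were given a 10-point threefold dilution series (mean top concentration 35 μM) in triplicate for 7 days (iAstro 3 days) at 37 °C, 5% CO2. CellTiter-Glo signal, log2-transformed and normalised per plate to % activity against solvent and positive controls, was fitted with a log-logistic curve or, where the sigmoid fit failed, a smoothing spline. Area under the curve was then computed by the trapezoid rule.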
# SUDIPGVI [4] = test: as above
# How it was run: as §2
Structure (SMILES),EC50 (log10 M) (HGGX2),EC50 (log10 M) (HGGX42),EC50 (log10 M) (SUDIPGXIII),EC50 (log10 M) (SUDIPGIV),EC50 (log10 M) (DIPGX29 [1]),EC50 (log10 M) (HGGX6),EC50 (log10 M) (DIPGX7),EC50 (log10 M) (DIPGX9),EC50 (log10 M) (SUDIPGXIX),EC50 (log10 M) (DIPGX37),EC50 (log10 M) (SUDIPGXVII),EC50 (log10 M) (SUDIPGVI [2]),EC50 (log10 M) (HABS),EC50 (log10 M) (HGGX39),EC50 (log10 M) (iAstro),EC50 (log10 M) (SUDIPGXXI),area under dose-response curve (DIPGX29 [3]),area under dose-response curve (SUDIPGVI [4])
Cc1ccc2nc(NCCN)c3ncc(C)n3c2c1,-5.19,-5,-4.89,-4.93,-4.95,-4.92,-4.87,-5.01,-4.93,-4.96,-4.88,-4.96,-4.94,-4.91,-5.39,-5.23,94.6,67
CC(C)c1cc(C(=O)N2Cc3ccc(CN4CCN(C)CC4)cc3C2)c(O)cc1O,-6.72,-5.89,-6.14,-6.68,-5.68,-6.73,-5.07,-6.96,-6.98,-6.85,-6.44,-5.95,-6.06,-6.08,-7.01,-6.4,189,88.8
O=C(Nc1ccc([N+](=O)[O-])cc1Cl)c1cc(Cl)ccc1O [NICOLSAMIDE],-5.27,-5.17,-5.59,-5.58,-5.58,-5.18,-5.77,-5.44,-5.31,-5.74,-5.39,-5.47,-5.14,-5.17,-5.43,-6.1,123,109
C[C@@H]1O[C@@H](O[C@H]2C[C@@H](O)[C@]3(CO)[C@H]4[C@H](O)C[C@]5(C)[C@@H](C6=CC(=O)OC6)CC[C@]5(O)[C@@H]4CC[C@]3(O)C2)[C@H](O)[C@H](O)[C@H]1O [OUABAIN],-6.55,-6.47,-6.47,-6.75,-7.26,-6.64,-6.78,-6.37,-6.41,-6.7,-6.53,-6.13,-5.89,-6.9,-6.91,-6.79,175,123
Cc1ccc(C(=O)Nc2ccc(CN3CCN(C)CC3)c(C(F)(F)F)c2)cc1C#Cc1cnc2cccnn12 [PONATINIB],-5.61,-5.22,-4.88,-4.81,-5.28,-5.11,-5.61,-6.72,-5.29,-5.38,-4.84,-4.86,-5.89,-5.47,-5.12,-7.54,134,119
CC(=O)c1cc([N+](=O)[O-])c(Sc2ccc(F)cc2F)s1,-4.59,-4.68,-4.72,-4.71,-4.83,-4.65,-4.76,-4.77,-4.78,-4.79,-4.75,-4.76,-4.7,-4.79,-4.85,-4.78,104,71.4
NC1CCC(Nc2cc(-c3cccc(NCc4cccc(F)c4)n3)c(Cl)cn2)CC1 (configuration not stated) [CDK9-IN-2],-5.72,-7,-5.75,-6.76,-6.87,-6.96,-6.76,-7.13,-6.93,-6.76,-6.67,-6.92,-5.73,-5.75,-5.35,-7.4,206,209
CCNC(=O)c1noc(-c2cc(C(C)C)c(O)cc2O)c1-c1ccc(CN2CCOCC2)cc1 [NVP-AUY922],-7.61,-7.81,-7.11,-7.28,-6.44,-7.36,-5.82,-7.48,-7.59,-7.47,-7.41,-7.36,-7.28,-7.42,-6.08,-6.65,204,118
O=C(c1ccccc1)c1ccc2nc(NC(=O)c3csc(C4CCN(c5ncnc6ccsc56)CC4)n3)[nH]c2c1,-5.06,-5.14,-5.72,-5.86,-5.26,-5.19,-5.45,-5.03,-4.95,-5.87,-5.91,-5.46,-5.18,-5.87,-5.2,-5.2,97.4,67
O=C(Nc1ccccc1-c1cn2c(CN3CCNCC3)csc2n1)c1cnc2ccccc2n1 [SRT1720],-5.41,-5.49,-4.96,-5.41,-5.16,-5.14,-5.4,-5.43,-5.34,-5.19,-4.97,-5.36,-4.93,-5.08,-5.43,-5.7,110,154
O=C(c1ccc(Nc2nccc(-c3cc4ccccc4s3)n2)cc1)N1CCC(N2CCCC2)CC1 [IKK 16],-5.4,-5.62,-4.69,-5.15,-5.53,-4.83,-5.27,-4.84,-4.87,-5.52,-4.85,-4.85,-4.75,-4.92,-5.16,-5.37,180,111
CCCCc1oc2ccc(NS(C)(=O)=O)cc2c1C(=O)c1ccc(OCCCN(CCCC)CCCC)cc1 [DRONEDARONE],-5.19,-5.41,-4.89,-5.15,-5.42,-5.14,-5.35,-5.04,-5.12,-5.38,-4.97,-4.87,-4.77,-5.01,-5.29,-5.77,148,105
CC(C)(C)c1cnc(CSc2cnc(NC(=O)C3CCNCC3)s2)o1,-6.28,-6.48,-5.95,-6.15,-6.2,-5.8,-5.84,-6.71,-6.11,-6.21,-6.08,-6.37,-6.64,-6.02,-6.22,-6.91,185,196
"Cc1c(C2CCN(CCc3ccccc3)CC2)noc1-c1ccc(Cl)cc1 [L-741,742]",-4.83,-4.88,-4.71,-4.89,-4.99,-4.87,-4.84,-5.35,-4.84,-4.93,-4.87,-4.81,-4.83,-4.87,-5,-4.91,100,36.1
CCCS(=O)(=O)c1nc(NC2CC2)cc(-c2ccc3c(ccn3C3CC(C)(C)NC(C)(C)C3)c2)n1 [NVS-1],-5.95,-5.95,-5.49,-5.52,-6.09,-5.83,-5.64,-5.62,-5.92,-5.99,-5.75,-5.79,-5.42,-5.57,-5.72,-5.34,172,158
CC(=O)c1ccc2c(c1)c1cc(C(C)=O)ccc1n2CCNC(C)C [CBL-0137],-5.6,-5.67,-5.14,-5.61,-5.42,-5.37,-5.22,-6.06,-6.28,-5.98,-5.23,-5.09,-6.08,-5.42,-6.54,-6.51,135,109
COC(=O)[C@]12CCC(C)(C)C[C@H]1[C@H]1C(=O)C=C3[C@@]4(C)C=C(C#N)C(=O)C(C)(C)[C@@H]4CC[C@@]3(C)[C@]1(C)CC2 [BARDOXOLONE METHYL],-5.74,-5.83,-5.62,-5.65,-6.17,-5.93,-5.56,-5.73,-5.53,-6.09,-5.59,-5.63,-5.66,-6.01,-5.99,-6.24,189,155
COc1ccc(-c2nc(N3CCOCC3)c3sc(CN(C)c4ncc(C(=O)NO)cn4)cc3n2)cn1 [CUDC-907],-7,-7.01,-5.71,-6.82,-6.81,-6.65,-7.01,-7.42,-6.9,-6.78,-6.74,-6.96,-6.29,-6.9,-6.31,-7.9,298,290
CCN(CC)CCNC(=O)c1c(C)[nH]c(/C=C2\C(=O)Nc3ccc(F)cc32)c1C [SUNITINIB],-5.16,-5.25,-4.94,-4.83,-4.95,-4.88,-4.99,-5.03,-5.05,-4.77,-4.97,-5.01,-4.96,-4.77,-5.05,-5.41,97.9,124
CCOC(=O)CCNc1cc(N2CCc3ccccc3CC2)nc(-c2ccccn2)n1 [GSK-J4],-5,-4.87,-4.82,-5.01,-4.87,-4.85,-5,-4.99,-4.97,-4.9,-4.99,-4.9,-4.98,-4.98,-5.51,-5.9,80.7,52.4
Nc1ccccc1NC(=O)c1ccc(CNc2nccc(-c3cccnc3)n2)cc1 [MOCETINOSTAT],-5.76,-5.52,-5.46,-5.43,-5.81,-5.51,-5.42,-6.26,-5.46,-5.51,-5.48,-5.98,-5.43,-5.37,-5.85,-6.53,144,184
CC(C)(C)OC(=O)Nc1ccc(-c2cc(C(=O)NCCCCCCC(=O)NO)no2)cc1 [BML-281],-5.43,-5.45,-4.89,-5.19,-5.53,-5.04,-4.92,-5.48,-5,-5.46,-5.09,-4.92,-4.89,-4.94,-5.37,-6.1,85.5,65.9
Cc1[nH]c2ccccc2c1CCNCc1ccc(/C=C/C(=O)NO)cc1 [PANOBINOSTAT],-6.89,-6.95,-6.04,-6.92,-6.97,-6.93,-6.73,-7.16,-6.75,-6.87,-6.69,-6.87,-6.59,-6.81,-6.78,-7.22,228,249
CC(C)c1c2cc(-c3ccnc(NC4CCC(NC5CCOCC5)CC4)n3)ccc2nn1C (configuration not stated),-6.63,-7.07,-6.79,-6.83,-6.63,-6.69,-6.89,-7.17,-7.04,-6.77,-6.93,-7,-7.04,-6.34,-7.45,-7.19,222,252
